Assays:
Format in all cases: in vivo, Ross 308 broiler chickens
CD3+ T-cells = assay: CD3 immunohistochemistry of duodenal tissue; conditions: duodenum, 21 days
Text: The study was undertaken following the guidelines of the ethics committee of the Faculty of Veterinary Medicine and Bioscience Engineering, Ghent University, in accordance with the EU Directive 2010/63/EU. […] They were allotted into 4 groups, with three replicate pens per group each housing 8 chickens. The animals were not vaccinated. Water and commercial starter feed (day 1-12, FARM 1 Mash, Country's Best, […], Belgium) or grower (day 13-21, FARM 2 mash, Country's Best, […], Belgium) were provided ad libitum. […] At day 21, 4 birds per pen were weighted then euthanized by sodium pentobarbital injection for sampling. […] Additionally, ileal and caecal content samples were collected and stored at -20°C for berberine and berberine-derived metabolite quantification. […] Slides for immunohistochemical staining for CD3^+ T-cells were automatically deparaffinized (Shandon […]-Gemini) before antigen retrieval with a pressure cooker in citrate buffer (10 mM, pH 6). Endogenous peroxidase activity was blocked by treating the slides with peroxidase blocking reagent ([…], Dako, Glostrup, Denmark) for 5 min. The presence of T-cells (CD3-positive cell abundance) in duodenal tissue from 21-day old chickens was evaluated using polyclonal primary antibodies against CD3 ([…], Dako, 1:100 dilution, 30 min at room temperature), followed by incubation with a secondary labelled polymer-HRP anti-rabbit antibody (Envision + System-HRP (DAB) ([…]), 30 min at room temperature). Slides were evaluated using the computer-based image analysis program, LAS V4.1. The CD3^+ area percentage in the duodenal tissue was quantified using four representative fields of view per intestinal section (10x objective).

jejunal microbiota = assay: 16S rRNA gene sequencing, microbiota composition in the jejunum
colonic microbiota = assay: 16S rRNA gene sequencing, microbiota composition in the colon
caecal microbiota = assay: SCFA quantification (GC-FID) in caecal contents of chickens; conditions: high dose (1 g berberine/kg feed), 21 days; p = 0.045
Description: 250 mg caecal content derived from the in vivo trial were weighed and diluted 1:20 for SCFA analysis. Acetate, propionate and butyrate were quantified using the GC-FID method described by ([De […] et al., 2010]). This method involves the extraction of SCFA from samples with diethyl ether after the addition of 2-methyl hexanoic acid as an internal standard.

[1] = 0.1 g berberine/kg feed vs normal diet, 21 days, LinDA-normalized abundance
[2] = 0.1 g berberine/kg feed, 21 days
[3] = 0.5 g berberine/kg feed vs normal diet, 21 days, LinDA-normalized abundance
[4] = 0.5 g berberine/kg feed, 21 days
[5] = 1 g berberine/kg feed vs normal diet, 21 days, LinDA-normalized abundance

COc1ccc2cc3[n+](cc2c1OC)CCc1cc2c(cc1-3)OCO2 [Berberine, Berberine chloride]
CD3+ area percentage (CD3+ T-cells; 0.1 g berberine/kg feed): 8.39 ± 1.05
CD3+ area percentage (CD3+ T-cells; 0.5 g berberine/kg feed): 8.89 ± 2.09
CD3+ area percentage (CD3+ T-cells; 1 g berberine/kg feed): 7.11 ± 2.18
L2 FC Butyricicoccus, 0.1 vs 0 (jejunal microbiota; [1]): -2.02
L2 FC Curtobacterium, 0.1 vs 0 (jejunal microbiota; [1]): -2.73
L2 FC Gordonibacter, 0.1 vs 0 (jejunal microbiota; [1]): -2.71
Mean relative abundance (%) Butyricicoccus (jejunal microbiota; [2]): 0.22%
Mean relative abundance (%) Curtobacterium (jejunal microbiota; [2]): 0.01%
Mean relative abundance (%) Gordonibacter (jejunal microbiota; [2]): 0.01%
Mean relative abundance of Bacillaceae (jejunal microbiota; [2]): 0.03%
Mean relative abundance of Burkholderiaceae (jejunal microbiota; [2]): 6.47%
Mean relative abundance of Peptostreptococcaceae (jejunal microbiota; [2]): 6.37%
Mean relative abundance of Pseudomonadaceae (jejunal microbiota; [2]): 1.71%
Mean relative abundance of Ruminococcaceae (jejunal microbiota; [2]): 3.73%
Mean relative abundance of uncultured bacterium family (Tenericutes, Mollicutes RF39) (jejunal microbiota; [2]): 0.01%
L2FC of LinDA-normalized abundance of Bacillaceae (jejunal microbiota; 0.1 vs 0 g berberine/kg feed): 3.45
L2FC of LinDA-normalized abundance of Burkholderiaceae (jejunal microbiota; 0.1 vs 0 g berberine/kg feed): 3.82
L2FC of LinDA-normalized abundance of Peptostreptococcaceae (jejunal microbiota; 0.1 vs 0 g berberine/kg feed): 3.90
L2FC of LinDA-normalized abundance of Pseudomonadaceae (jejunal microbiota; 0.1 vs 0 g berberine/kg feed): 3.67
L2FC of LinDA-normalized abundance of Ruminococcaceae (jejunal microbiota; 0.1 vs 0 g berberine/kg feed): 2.19
L2FC of LinDA-normalized abundance of uncultured bacterium family (Tenericutes, Mollicutes RF39) (jejunal microbiota; 0.1 vs 0 g berberine/kg feed): 2.35
L2 FC Butyricicoccus, 0.5 vs 0 (jejunal microbiota; [3]): -0.78
L2 FC Curtobacterium, 0.5 vs 0 (jejunal microbiota; [3]): -1.13
L2 FC Gordonibacter, 0.5 vs 0 (jejunal microbiota; [3]): -2.33
Mean relative abundance (%) Butyricicoccus (jejunal microbiota; [4]): 0.34%
Mean relative abundance (%) Curtobacterium (jejunal microbiota; [4]): 0.03%
Mean relative abundance (%) Gordonibacter (jejunal microbiota; [4]): 0.00%
Mean relative abundance of Bacillaceae (jejunal microbiota; [4]): 0.04%
Mean relative abundance of Burkholderiaceae (jejunal microbiota; [4]): 5.60%
Mean relative abundance of Peptostreptococcaceae (jejunal microbiota; [4]): 0.52%
Mean relative abundance of Pseudomonadaceae (jejunal microbiota; [4]): 0.35%
Mean relative abundance of Ruminococcaceae (jejunal microbiota; [4]): 4.52%
Mean relative abundance of uncultured bacterium family (Tenericutes, Mollicutes RF39) (jejunal microbiota; [4]): 0.02%
L2FC of LinDA-normalized abundance of Bacillaceae (jejunal microbiota; 0.5 vs 0 g berberine/kg feed): 1.43
L2FC of LinDA-normalized abundance of Burkholderiaceae (jejunal microbiota; 0.5 vs 0 g berberine/kg feed): 0.67
L2FC of LinDA-normalized abundance of Peptostreptococcaceae (jejunal microbiota; 0.5 vs 0 g berberine/kg feed): -1.12
L2FC of LinDA-normalized abundance of Pseudomonadaceae (jejunal microbiota; 0.5 vs 0 g berberine/kg feed): 0.14
L2FC of LinDA-normalized abundance of Ruminococcaceae (jejunal microbiota; 0.5 vs 0 g berberine/kg feed): -0.14
L2FC of LinDA-normalized abundance of uncultured bacterium family (Tenericutes, Mollicutes RF39) (jejunal microbiota; 0.5 vs 0 g berberine/kg feed): 0.60
L2 FC Butyricicoccus, 1 vs 0 (jejunal microbiota; [5]): -0.38
L2 FC Curtobacterium, 1 vs 0 (jejunal microbiota; [5]): -2.09
L2 FC Gordonibacter, 1 vs 0 (jejunal microbiota; [5]): -1.79
Mean relative abundance (%) Butyricicoccus (jejunal microbiota; 1 g berberine/kg feed, 21 days): 0.84%
Mean relative abundance (%) Curtobacterium (jejunal microbiota; 1 g berberine/kg feed, 21 days): 0.06%
Mean relative abundance (%) Gordonibacter (jejunal microbiota; 1 g berberine/kg feed, 21 days): 0.02%
Mean relative abundance of Bacillaceae (jejunal microbiota; 1 g berberine/kg feed, 21 days): 0.04%
Mean relative abundance of Burkholderiaceae (jejunal microbiota; 1 g berberine/kg feed, 21 days): 3.55%
Mean relative abundance of Peptostreptococcaceae (jejunal microbiota; 1 g berberine/kg feed, 21 days): 0.26%
Mean relative abundance of Pseudomonadaceae (jejunal microbiota; 1 g berberine/kg feed, 21 days): 0.35%
Mean relative abundance of Ruminococcaceae (jejunal microbiota; 1 g berberine/kg feed, 21 days): 10.54%
Mean relative abundance of uncultured bacterium family (Tenericutes, Mollicutes RF39) (jejunal microbiota; 1 g berberine/kg feed, 21 days): 0.00%
L2FC of LinDA-normalized abundance of Bacillaceae (jejunal microbiota; 1 vs 0 g berberine/kg feed): 0.80
L2FC of LinDA-normalized abundance of Burkholderiaceae (jejunal microbiota; 1 vs 0 g berberine/kg feed): 1.37
L2FC of LinDA-normalized abundance of Peptostreptococcaceae (jejunal microbiota; 1 vs 0 g berberine/kg feed): -3.21
L2FC of LinDA-normalized abundance of Pseudomonadaceae (jejunal microbiota; 1 vs 0 g berberine/kg feed): 1.01
L2FC of LinDA-normalized abundance of Ruminococcaceae (jejunal microbiota; 1 vs 0 g berberine/kg feed): 1.51
L2FC of LinDA-normalized abundance of uncultured bacterium family (Tenericutes, Mollicutes RF39) (jejunal microbiota; 1 vs 0 g berberine/kg feed): 0.00
Abundance of phylum Actinobacteria (jejunal microbiota; high dose (1 g/kg feed), p = 0.021): reduction
Abundance of phylum Actinobacteria (jejunal microbiota; low dose (0.1 g/kg feed), p < 0.001): reduction
L2 FC Family_ Peptostreptococcaceae, 0.1 vs 0 (colonic microbiota; [1]): -1.21
L2 FC GCA-900066575, 0.1 vs 0 (colonic microbiota; [1]): 3.13
L2 FC Lachnospiraceae UCG-010, 0.1 vs 0 (colonic microbiota; [1]): 2.34
L2 FC Romboutsia, 0.1 vs 0 (colonic microbiota; [1]): -0.31
L2 FC Ruminococcaceae UCG-014, 0.1 vs 0 (colonic microbiota; [1]): 5.39
L2 FC uncultured genus of Peptostreptococcaceae, 0.1 vs 0 (colonic microbiota; [1]): -1.31
Mean relative abundance (%) Family_ Peptostreptococcaceae (colonic microbiota; [2]): 0.11%
Mean relative abundance (%) GCA-900066575 (colonic microbiota; [2]): 0.59%
Mean relative abundance (%) Lachnospiraceae UCG-010 (colonic microbiota; [2]): 0.06%
Mean relative abundance (%) Romboutsia (colonic microbiota; [2]): 0.14%
Mean relative abundance (%) Ruminococcaceae UCG-014 (colonic microbiota; [2]): 3.36%
Mean relative abundance (%) uncultured genus of Peptostreptococcaceae (colonic microbiota; [2]): 13.82%
Mean relative abundance of Peptostreptococcaceae (colonic microbiota; [2]): 14.07%
L2FC of LinDA-normalized abundance of Peptostreptococcaceae (colonic microbiota; 0.1 vs 0 g berberine/kg feed): -0.79
L2 FC Family_ Peptostreptococcaceae, 0.5 vs 0 (colonic microbiota; [3]): -2.31
L2 FC GCA-900066575, 0.5 vs 0 (colonic microbiota; [3]): 1.10
L2 FC Lachnospiraceae UCG-010, 0.5 vs 0 (colonic microbiota; [3]): 0.64
L2 FC Romboutsia, 0.5 vs 0 (colonic microbiota; [3]): -1.42
L2 FC Ruminococcaceae UCG-014, 0.5 vs 0 (colonic microbiota; [3]): 2.59
L2 FC uncultured genus of Peptostreptococcaceae, 0.5 vs 0 (colonic microbiota; [3]): -1.92
Mean relative abundance (%) Family_ Peptostreptococcaceae (colonic microbiota; [4]): 0.13%
Mean relative abundance (%) GCA-900066575 (colonic microbiota; [4]): 0.53%
Mean relative abundance (%) Lachnospiraceae UCG-010 (colonic microbiota; [4]): 0.03%
Mean relative abundance (%) Romboutsia (colonic microbiota; [4]): 0.11%
Mean relative abundance (%) Ruminococcaceae UCG-014 (colonic microbiota; [4]): 1.19%
Mean relative abundance (%) uncultured genus of Peptostreptococcaceae (colonic microbiota; [4]): 15.49%
Mean relative abundance of Peptostreptococcaceae (colonic microbiota; [4]): 15.73%
L2FC of LinDA-normalized abundance of Peptostreptococcaceae (colonic microbiota; 0.5 vs 0 g berberine/kg feed): -0.94
L2 FC Family_ Peptostreptococcaceae, 1 vs 0 (colonic microbiota; [5]): -6.62
L2 FC GCA-900066575, 1 vs 0 (colonic microbiota; [5]): 2.34
L2 FC Lachnospiraceae UCG-010, 1 vs 0 (colonic microbiota; [5]): 0.99
L2 FC Romboutsia, 1 vs 0 (colonic microbiota; [5]): -6.45
L2 FC Ruminococcaceae UCG-014, 1 vs 0 (colonic microbiota; [5]): 3.32
L2 FC uncultured genus of Peptostreptococcaceae, 1 vs 0 (colonic microbiota; [5]): -9.04
Mean relative abundance (%) Family_ Peptostreptococcaceae (colonic microbiota; 1 g berberine/kg feed, 21 days): 0.01%
Mean relative abundance (%) GCA-900066575 (colonic microbiota; 1 g berberine/kg feed, 21 days): 0.65%
Mean relative abundance (%) Lachnospiraceae UCG-010 (colonic microbiota; 1 g berberine/kg feed, 21 days): 0.06%
Mean relative abundance (%) Romboutsia (colonic microbiota; 1 g berberine/kg feed, 21 days): 0.00%
Mean relative abundance (%) Ruminococcaceae UCG-014 (colonic microbiota; 1 g berberine/kg feed, 21 days): 1.02%
Mean relative abundance (%) uncultured genus of Peptostreptococcaceae (colonic microbiota; 1 g berberine/kg feed, 21 days): 0.50%
Mean relative abundance of Peptostreptococcaceae (colonic microbiota; 1 g berberine/kg feed, 21 days): 0.51%
L2FC of LinDA-normalized abundance of Peptostreptococcaceae (colonic microbiota; 1 vs 0 g berberine/kg feed): -8.67
Observed number of OTUs (colonic microbiota; lowest concentration (0.1 g/kg feed), p = 0.026): significantly increased
Propionate in the caecum (GC-FID) (caecal microbiota): significantly increased

— paper PMC10733463, “Berberine-microbiota interplay: orchestrating gut health through modulation of the gut microbiota and metabolic transformation into bioactive metabolites” (Frontiers in Pharmacology, 2023)
